Measurements from paper PMC11383987 (bioRxiv, 2024).

Target: T1, Arabidopsis thaliana PIN8 (Arabidopsis thaliana, UniProt Q9LFP6)
T1 sequence (Q9LFP6 1-367): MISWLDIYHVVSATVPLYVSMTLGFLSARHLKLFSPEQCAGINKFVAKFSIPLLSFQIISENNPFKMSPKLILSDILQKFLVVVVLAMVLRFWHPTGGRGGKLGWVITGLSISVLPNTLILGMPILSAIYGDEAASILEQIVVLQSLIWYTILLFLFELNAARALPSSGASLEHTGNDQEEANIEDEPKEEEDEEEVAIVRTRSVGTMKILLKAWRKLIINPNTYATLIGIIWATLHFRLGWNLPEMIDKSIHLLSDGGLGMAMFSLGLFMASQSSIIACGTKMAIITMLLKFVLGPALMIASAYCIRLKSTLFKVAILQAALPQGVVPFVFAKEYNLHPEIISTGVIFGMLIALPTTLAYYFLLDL
Assay: SSM electrophysiology peak current response, wild-type PIN8 proteoliposomes
Type: biochemical

O=C(O)c1ccccc1C(=O)Nc1cccc2ccccc12 [NPA, 1-N-naphthylphthalamic acid]
effect of NPA on current response to 2,4-D (100 μM 2,4D in absence or presence of 20 µM NPA): inhibited | peak width of SSM current response at various lipid-to-protein ratios (LPR) (LPR10 vs LPR50, variation is consistent with transport): does not change
